In article PMC11923649, “Novel C-2 Aromatic Heterocycle-Substituted Triterpenoids Inhibit Hedgehog Signaling in GLI1 Overexpression Cancer Cells” (ACS Omega, 2025):

Experiments:
[1] = system: U2OS; experiment: MTS cytotoxicity assay, 72 h, U2OS; format: cell-based; details: Homo sapiens
Procedure: (§1) Based on the preliminary results and tests of a larger library of known triterpenoids, a small set of 2-substituted lupane and 18α-oleanane derivatives was designed and synthesized. As the first step, the cytotoxic activity of the synthesized derivatives was assessed using an MTS assay following 72 h of treatment (Table 1). Selected cell lines A549 (lung adenocarcinoma) and DU-145 (prostate cancer) are both dependent on Hh signaling. In addition, K562 (chronic myelogenous leukemia) was included as a cell line sensitive to Hh inhibitors[32] and a type of hematological malignancy with active Hh signaling.[33] MRC-5 lung fibroblasts and BJ human skin fibroblasts cell lines were used to evaluate the toxicity against nontumor cells. Compounds were also tested using the standard panel of other cancer cell lines, as described in our earlier work (Table 1).[27]
(§2) The human prostate tumor-derived cell line DU145 was obtained from ATCC (American Type Culture Collection) and cultured in RPMI 1640 (Roswell Park Memorial Institute) medium supplemented with 10% (v/v) fetal bovine serum (FBS). Human prostate tumor-derived LNCaP cells were obtained from ATCC and cultured in RPMI 1640 medium supplemented with 10% FBS. The human nonsmall cell lung carcinoma (NSCLC)-derived cell line HOP-62 was obtained from the DSMZ (German Collection of Microorganisms and Cell Cultures) and cultured in RPMI 1640 medium supplemented with 10% FBS. The human nonsmall cell lung carcinoma-derived cell line NCI-H322 was obtained from ECACC (European Collection of Authenticated Cell Cultures) and cultured in RPMI 1640 medium supplemented with 10% FBS. The human nonsmall cell lung carcinoma-derived cell line NCI-H522 was obtained from ATCC and cultured in RPMI 1640 medium supplemented with 10% FBS. The human lung tumor-derived cell line A549 was obtained from ATCC and cultured in Dulbecco’s Modified Eagle’s Medium (DMEM) supplemented with 10% FBS. The human medulloblastoma-derived cell line DAOY was obtained from ATCC and cultured in Eagle’s Minimum Essential Medium (EMEM) supplemented with 10% FBS. The human glioblastoma-derived cell line T98G was obtained from ATCC and cultured in EMEM medium supplemented with 10% FBS, 1 mmol/L sodium pyruvate, and 1 mmol/L nonessential amino acid mixture. All the above-mentioned cell lines were cultured at 37 °C in an atmosphere of 5% CO2 with 95% humidity. The cytotoxicity MTS assays were performed using MTS (3-(4,5-dimethylthiazol-2-yl)-5-(3-carboxymethoxyphenyl)-2-(4-sulfophenyl)-2H-tetrazolium) tetrazolium salt. Briefly, cells were seeded in a 384-well transparent plate in a volume of 25 μL and a concentration of 15,000 cells/mL (DU145, LNCaP, HOP-62, A549, DAOY, T98G) or 30,000 cells/mL (NCI-H322, NCI-H522). The next day, cells were exposed to compounds in a concentration range of 50–0.0975 μmol/L (dilution factor 2) and cultured in the presence of the compounds for 72 h. After 72 h, 5 μL of MTS/phenazine methosulfate solution was pipetted into each well and incubation continued for 1–4 h. Finally, the absorbance at 490 nm was measured using an EnVision multifunctional modular reader (PerkinElmer). The IC50 value was determined using Dotmatics software.

[2] = system: CEM-DNR; experiment: MTS cytotoxicity assay, 72 h, CEM-DNR; format: cell-based; details: Homo sapiens
Procedure: as §1, with “1).[27] […]” for “1).[27]”

[3] = system: CCRF-CEM; experiment: MTS cytotoxicity assay, 72 h, CCRF-CEM; format: cell-based; details: for IC50: Homo sapiens, CCRF-CEM, 72 h, MTS
Procedure: as §1, §2

[4] = system: A549 (lung adenocarcinoma); experiment: MTS cytotoxicity assay, 72 h, A549; format: cell-based; details: Homo sapiens, A549, 72 h
Procedure: as §1, §2

[5] = system: BJ human skin fibroblasts; experiment: MTS cytotoxicity assay, 72 h, BJ fibroblasts; format: cell-based; details: normal fibroblasts; for IC50: Homo sapiens, Skin fibroblast
Procedure: as §1, §2

[6] = system: MRC-5 lung fibroblasts; experiment: MTS cytotoxicity assay, 72 h, MRC-5 fibroblasts; format: cell-based, human; details: normal fibroblasts; for IC50: Homo sapiens, MRC5, 72 h
Procedure: as §1, §2

[7] = system: HCT 116; experiment: MTS cytotoxicity assay, 72 h, HCT 116; format: cell-based; details: Homo sapiens, HCT-116, 72 h
Procedure: as §1, §2

[8] = system: DU-145 (prostate cancer); experiment: MTS cytotoxicity assay, 72 h, DU-145; format: cell-based, human
Procedure: as §1, §2

[9] = system: K562 (chronic myelogenous leukemia); experiment: MTS cytotoxicity assay, 72 h, K562; format: cell-based; details: Homo sapiens
Procedure: as §1, §2

[10] = system: HCT116 p53–/–; experiment: MTS cytotoxicity assay, 72 h, HCT116 p53–/–; format: cell-based; details: Homo sapiens, HCT-116, 72 h
Procedure: as §1, §2

[11] = system: K562-TAX; experiment: MTS cytotoxicity assay, 72 h, K562-TAX; format: cell-based
Procedure: as §1, §2

[12] = CCRF-CEM vs average of BJ and MRC-5, full Table S1
[13] = Homo sapiens, DU-145, 72 h, full Table S1
[14] = IC50 of CCRF-CEM line vs average of both fibroblasts (BJ and MRC-5), Table 1
[15] = Homo sapiens, DU-145, 72 h, Table 1

Compound | IC50 ([1]; full Table S1) | IC50 ([2]; full Table S1) | SI (selectivity index) [3, 12] | IC50 ([3]; full Table S1) | IC50 ([4]; full Table S1) | IC50 ([5]; full Table S1) | IC50 ([6]; full Table S1) | IC50 ([7]; full Table S1) | IC50 [8, 13] | IC50 ([9]; full Table S1) | IC50 ([10]; full Table S1) | IC50 ([11]; full Table S1) | other results
CC1(C)C(=O)C(c2ccc(Cl)s2)=C[C@@]2(C)C1CC[C@]1(C)C2CCC2C3[C@H]4OC[C@@]3(CCC4(C)C)CC[C@]21C (stereo partly drawn) [Compound 4e, 2-(5-Chlorothiophen-2-yl)-19β,28-epoxyolean-1-en-3-one] | > 50 µM | > 50 µM | > 1.0 | > 50 µM | > 50 µM | > 50 µM | > 50 µM | > 50 µM | > 50 µM | > 50 µM | > 50 µM | > 50 µM | –
C=C(C)[C@@H]1CC[C@]2(C(=O)OCc3ccccc3)CC[C@]3(C)C(CCC4[C@@]5(C)C=C(c6cncnc6)C(=O)C(C)(C)C5CC[C@]43C)C12 (stereo partly shown) [Compound 10i, Benzyl 2-(5-Pyrimidinyl)-3-oxolupa-1,20(29)-dien-28-oate] | > 50 µM | > 50 µM | > 1.0 | > 50 µM | > 50 µM | > 50 µM | > 50 µM | > 50 µM | > 50 µM | > 50 µM | > 50 µM | > 50 µM | –
CC1(C)C(=O)C(c2ccc3c(c2)OCCO3)=C[C@@]2(C)C1CC[C@]1(C)C2CCC2C3[C@H]4OC[C@@]3(CCC4(C)C)CC[C@]21C (stereo partly drawn) [Compound 4j, 2-(1,4-Benzodioxan-6-yl)-19β,28-epoxyolean-1-en-3-one] | > 50 µM | > 50 µM | > 1.0 | > 50 µM | > 50 µM | > 50 µM | > 50 µM | > 50 µM | > 50 µM | > 50 µM | > 50 µM | > 50 µM | –
C=C(C)[C@@H]1CC[C@]2(C(=O)OCc3ccccc3)CC[C@]3(C)C(CCC4[C@@]5(C)C=C(c6ccc7c(c6)OCCO7)C(=O)C(C)(C)C5CC[C@]43C)C12 (stereo partly shown) [Compound 10j, Benzyl 2-(1,4-Benzodioxan)-3-oxolupa-1,20(29)-dien-28-oate] | > 50 µM | > 50 µM | > 1.0 | > 50 µM | > 50 µM | > 50 µM | > 50 µM | > 50 µM | > 50 µM | > 50 µM | > 50 µM | > 50 µM | –
C=C(C)[C@@H]1CC[C@]2(C(=O)OCc3ccccc3)CC[C@]3(C)C(CCC4[C@@]5(C)C=C(c6ccoc6)C(=O)C(C)(C)C5CC[C@]43C)C12 (stereo partly shown) [Compound 10b, Benzyl 2-(3-Furanyl)-3-oxolupa-1,20(29)-dien-28-oate] | > 50 µM | > 50 µM | > 1.0 | > 50 µM | > 50 µM | > 50 µM | > 50 µM | > 50 µM | > 50 µM | > 50 µM | > 50 µM | > 50 µM | –
C=C(C)[C@@H]1CC[C@]2(C(=O)O)CC[C@]3(C)C(CCC4[C@@]5(C)C=C(c6ccc7cn[nH]c7c6)C(=O)C(C)(C)C5CC[C@]43C)C12 (stereo partly shown) [Compound 11n, 2-(Indazol-6-yl)-3-oxolupa-1,20(29)-dien-28-oic acid] | 20.5 µM | 21.9 µM | – | – | 15.1 µM | 35.1 µM | 26.5 µM | 14.9 µM | – | 22.3 µM | 16.8 µM | 12.1 µM | IC50 ([1]; Table 1): 21 µM; IC50 ([2]; Table 1): 22 µM; IC50 ([3]; Table 1): 4.9 µM; SI (selectivity index) [3, 14]: 6.3; IC50 ([4]; Table 1): 15 µM; IC50 ([5]; Table 1): 35 µM; IC50 ([6]; Table 1): 27 µM; IC50 ([7]; Table 1): 15 µM; IC50 [8, 15]: 8.3 µM; IC50 ([9]; Table 1): 22 µM; IC50 ([10]; Table 1): 17 µM; IC50 ([11]; Table 1): 12 µM
CC1(C)C(=O)C(c2cncnc2)=C[C@@]2(C)C1CC[C@]1(C)C2CCC2C3[C@H]4OC[C@@]3(CCC4(C)C)CC[C@]21C (stereo partly drawn) [Compound 4i, 2-(Pyrimidin-5-yl)-19β,28-epoxyolean-1-en-3-one] | – | 27.4 µM | – | – | – | – | – | – | – | – | – | – | IC50 ([1]; Table 1): > 50 µM; IC50 ([2]; Table 1): 27 µM; IC50 ([3]; Table 1): > 50 µM; IC50 ([4]; Table 1): > 50 µM; IC50 ([5]; Table 1): > 50 µM; IC50 ([6]; Table 1): > 50 µM; IC50 ([7]; Table 1): > 50 µM; IC50 [8, 15]: > 50 µM; IC50 ([9]; Table 1): > 50 µM; IC50 ([10]; Table 1): > 50 µM; IC50 ([11]; Table 1): > 50 µM
CN(C)c1ccccc1CN1CCCN(Cc2ccccc2N(C)C)C1c1ccncc1 [GANT-61, reference compound] | – | – | – | – | – | – | – | – | – | – | – | – | IC50 ([8]; Table 1): > 50 µM
C=C(C)[C@@H]1CC[C@]2(C(=O)O)CC[C@]3(C)C(CCC4[C@@]5(C)C=C(c6cccnc6)C(=O)C(C)(C)C5CC[C@]43C)C12 (stereo partly shown) [Compound 11g, 2-(Pyridin-3-yl)-3-oxolupa-1,20(29)-dien-28-oic acid] | 44.4 µM | 20.5 µM | – | 18.1 µM | 34.8 µM | – | – | 33.5 µM | 11.1 µM | – | 39.6 µM | – | IC50 ([1]; Table 1): 44 µM; IC50 ([2]; Table 1): 21 µM; IC50 ([3]; Table 1): 18 µM; SI (selectivity index) [3, 14]: >2.8; IC50 ([4]; Table 1): 35 µM; IC50 ([5]; Table 1): > 50 µM; IC50 BJ ([5]; Table 1): below the detection limit; IC50 ([6]; Table 1): > 50 µM; IC50 MRC-5 ([6]; Table 1): below the detection limit; IC50 ([7]; Table 1): 34 µM; IC50 [8, 15]: 11 µM; IC50 ([9]; Table 1): > 50 µM; IC50 ([10]; Table 1): 40 µM; IC50 ([11]; Table 1): 20 µM
CC1(C)C(=O)C(c2cc3ccccc3s2)=C[C@@]2(C)C1CC[C@]1(C)C2CCC2C3[C@H]4OC[C@@]3(CCC4(C)C)CC[C@]21C (stereo partly drawn) [Compound 4k, 2-(Benzo[b]thien-2-yl)-19β,28-epoxyolean-1-en-3-one] | > 50 µM | > 50 µM | > 1.0 | > 50 µM | > 50 µM | > 50 µM | > 50 µM | > 50 µM | > 50 µM | > 50 µM | > 50 µM | > 50 µM | –
C=C(C)[C@@H]1CC[C@]2(C(=O)OCc3ccccc3)CC[C@]3(C)C(CCC4[C@@]5(C)C=C(c6cccnc6)C(=O)C(C)(C)C5CC[C@]43C)C12 (stereo partly shown) [Compound 10g, Benzyl 2-(3-Pyridinyl)-3-oxolupa-1,20(29)-dien-28-oate] | > 50 µM | > 50 µM | > 1.0 | > 50 µM | > 50 µM | > 50 µM | > 50 µM | > 50 µM | > 50 µM | > 50 µM | > 50 µM | > 50 µM | –
